# “And” between values parts separate entries of the source, which are not always exact repeats. Equal values may be shown once.
# What was measured:
# [1] = system: CCl4 induced hepatic injury; assay: Hepatoprotective potential against CCl4 induced hepatic injury in rodents (prophylactic); assay type: in vivo, Rodents (Albino rats, Wistar; Albino mice, Swiss); conditions: for % protection, GSH / % protection, LP / GSH (glutathione) / LP (lipid peroxidation): hepatic; for GSH (glutathione) / LP (lipid peroxidation) / ALP / Albumin / Bilirubin / GOT / GPT / TG: mean ± SE, six animals; for % protection, ALP / % protection, Albumin / % protection, Bilirubin / % protection, GOT / % protection, GPT / % protection, TG / ALP / Albumin / Bilirubin / GOT / GPT / TG: serum
# Description: The compound has been bioevaluated for hepatoprotective/antihepatotoxic activity by using a comprehensive study design annexed herewith as Annexure-2. The parameters studied during the bioevaluation to establish the bioefficacy and optimum dose were preferred using the kits (Clonital, Italy and Accurex Biomedical Pvt. Ltd Thane). The list of the parameters is given in Annexure-2 appended herewith. The dose response graphs with respect to different parameters in comparison with the standard drug with silymarin and glycyrrhizin are given in Annexure-3 appended herewith.
# Hepatoprotective activity (H) was calculated by the following equation: H=[1−(TC−V/VC−V)]×100
# Where TC, VC, and V are drug+toxin, vehicle+toxin and vehicle treated groups of animals respectively.
# [2] = Acteoside only (per-se), serum and hepatic parameters without toxin; assay type: in vivo, Rodents; conditions: 5 mg/kg, mean ± SE, six animals
# [3] = Effect on BP and respiration, I.V. in rat; assay type: in vivo; conditions: 30 μg, 100 μg, 300 μg and 1 mg I.V. in rat
# isolated rat colon = assay: Histamine, 5-HT and Acetylcholine induced contraction on the isolated rat colon
structure (smiles),measurement,setting,value
"C[C@@H]1O[C@@H](O[C@@H]2[C@@H](O)[C@H](OCCc3ccc(O)c(O)c3)O[C@H](CO)[C@H]2OC(=O)/C=C/c2ccc(O)c(O)c2)[C@H](O)[C@H](O)[C@H]1O [Acteoside, β-(3′,4′-dihydroxyphenyl) ethyl —O-α-L-rhamnopyranosyl (1→3)-β-D-(4-O-caffeoyl)-glucopyranoside]","% protection, GSH",[1]; 0.625 mg/kg p.o. + CCl4,(27.86) %
same,"% protection, LP",[1]; 0.625 mg/kg p.o. + CCl4,(43.53) %
same,GSH (glutathione),[1]; 0.625 mg/kg p.o. + CCl4,4.66 ± 0.28 μ mole GSH/g liver
same,LP (lipid peroxidation),[1]; 0.625 mg/kg p.o. + CCl4,61.08 ± 3.39 n mole MDA/g liver
same,"% protection, ALP",[1]; 0.625 mg/kg p.o. + CCl4,(21.48) %
same,"% protection, Albumin",[1]; 0.625 mg/kg p.o. + CCl4,(21.43) %
same,"% protection, Bilirubin",[1]; 0.625 mg/kg p.o. + CCl4,(12.24) %
same,"% protection, GOT",[1]; 0.625 mg/kg p.o. + CCl4,(36.64) %
same,"% protection, GPT",[1]; 0.625 mg/kg p.o. + CCl4,(39.44) %
same,"% protection, TG",[1]; 0.625 mg/kg p.o. + CCl4,(17.63) %
same,ALP,[1]; 0.625 mg/kg p.o. + CCl4,66.80 ± 3.53 μ mole of p-nitrophenol formed/min/L
same,Albumin,[1]; 0.625 mg/kg p.o. + CCl4,3.06 ± 0.07 g %
same,Bilirubin,[1]; 0.625 mg/kg p.o. + CCl4,0.70 ± 0.03 mg %
same,GOT,[1]; 0.625 mg/kg p.o. + CCl4,673.82 ± 56.28 Units (μ mole pyruvate/min/L)
same,GPT,[1]; 0.625 mg/kg p.o. + CCl4,852.27 ± 47.93 Units (μ mole pyruvate/min/L)
same,TG,[1]; 0.625 mg/kg p.o. + CCl4,80.15 ± 3.53 mg %
same,overall percent protection with reference to all the parameters studied,"[1]; 1.25 mg upto 5 mg/kg, CCl4",40-85% and 40-80%
same,"% protection, GSH",[1]; 1.25 mg/kg p.o. + CCl4,(52.96) %
same,"% protection, LP",[1]; 1.25 mg/kg p.o. + CCl4,(59.38) %
same,GSH (glutathione),[1]; 1.25 mg/kg p.o. + CCl4,5.93 ± 0.32 μ mole GSH/g liver
same,LP (lipid peroxidation),[1]; 1.25 mg/kg p.o. + CCl4,52.61 ± 2.25 n mole MDA/g liver
same,"% protection, ALP",[1]; 1.25 mg/kg p.o. + CCl4,(38.72) %
same,"% protection, Albumin",[1]; 1.25 mg/kg p.o. + CCl4,(35.00) %
same,"% protection, Bilirubin",[1]; 1.25 mg/kg p.o. + CCl4,(34.69) %
same,"% protection, GOT",[1]; 1.25 mg/kg p.o. + CCl4,(55.43) %
same,"% protection, GPT",[1]; 1.25 mg/kg p.o. + CCl4,(51.01) %
same,"% protection, TG",[1]; 1.25 mg/kg p.o. + CCl4,(27.13) %
same,ALP,[1]; 1.25 mg/kg p.o. + CCl4,59.10 ± 3.09 μ mole of p-nitrophenol formed/min/L
same,Albumin,[1]; 1.25 mg/kg p.o. + CCl4,3.25 ± 0.14 g %
same,Bilirubin,[1]; 1.25 mg/kg p.o. + CCl4,0.59 ± 0.03 mg %
same,GOT,[1]; 1.25 mg/kg p.o. + CCl4,503.42 ± 48.95 Units (μ mole pyruvate/min/L)
same,GPT,[1]; 1.25 mg/kg p.o. + CCl4,787.56 ± 57.49 Units (μ mole pyruvate/min/L)
same,TG,[1]; 1.25 mg/kg p.o. + CCl4,74.38 ± 3.78 mg %
same,"% protection, GSH",[1]; 2.5 mg/kg p.o. + CCl4,(68.57) %
same,"% protection, LP",[1]; 2.5 mg/kg p.o. + CCl4,(72.76) %
same,GSH (glutathione),[1]; 2.5 mg/kg p.o. + CCl4,6.72 ± 0.28 μ mole GSH/g liver
same,LP (lipid peroxidation),[1]; 2.5 mg/kg p.o. + CCl4,45.46 ± 2.79 n mole MDA/g liver
same,"% protection, ALP",[1]; 2.5 mg/kg p.o. + CCl4,(56.40) %
same,"% protection, Albumin",[1]; 2.5 mg/kg p.o. + CCl4,(56.43) %
same,"% protection, Bilirubin",[1]; 2.5 mg/kg p.o. + CCl4,(53.06) %
same,"% protection, GOT",[1]; 2.5 mg/kg p.o. + CCl4,(58.92) %
same,"% protection, GPT",[1]; 2.5 mg/kg p.o. + CCl4,(59.79) %
same,"% protection, TG",[1]; 2.5 mg/kg p.o. + CCl4,(51.06) %
same,ALP,[1]; 2.5 mg/kg p.o. + CCl4,51.20 ± 1.42 μ mole of p-nitrophenol formed/min/L
same,Albumin,[1]; 2.5 mg/kg p.o. + CCl4,3.55 ± 0.22 g %
same,Bilirubin,[1]; 2.5 mg/kg p.o. + CCl4,0.50 ± 0.03 mg %
same,GOT,[1]; 2.5 mg/kg p.o. + CCl4,471.81 ± 26.40 Units (μ mole pyruvate/min/L)
same,GPT,[1]; 2.5 mg/kg p.o. + CCl4,662.62 ± 39.80 Units (μ mole pyruvate/min/L)
same,TG,[1]; 2.5 mg/kg p.o. + CCl4,59.85 ± 1.88 mg %
same,"% protection, GSH",[1]; 5.0 mg/kg p.o. + CCl4,(74.50) %
same,"% protection, LP",[1]; 5.0 mg/kg p.o. + CCl4,(75.07) %
same,GSH (glutathione),[1]; 5.0 mg/kg p.o. + CCl4,7.02 ± 0.46 μ mole GSH/g liver
same,LP (lipid peroxidation),[1]; 5.0 mg/kg p.o. + CCl4,44.22 ± 1.66 n mole MDA/g liver
same,"% protection, ALP",[1]; 5.0 mg/kg p.o. + CCl4,(67.21) %
same,"% protection, Albumin",[1]; 5.0 mg/kg p.o. + CCl4,(82.14) %
same,"% protection, Bilirubin",[1]; 5.0 mg/kg p.o. + CCl4,(69.38) %
same,"% protection, GOT",[1]; 5.0 mg/kg p.o. + CCl4,(70.49) %
same,"% protection, GPT",[1]; 5.0 mg/kg p.o. + CCl4,(66.08) %
same,"% protection, TG",[1]; 5.0 mg/kg p.o. + CCl4,(68.42) %
same,ALP,[1]; 5.0 mg/kg p.o. + CCl4,46.37 ± 1.89 μ mole of p-nitrophenol formed/min/L
same,Albumin,[1]; 5.0 mg/kg p.o. + CCl4,3.91 ± 0.12 g %
same,Bilirubin,[1]; 5.0 mg/kg p.o. + CCl4,0.42 ± 0.02 mg %
same,GOT,[1]; 5.0 mg/kg p.o. + CCl4,366.89 ± 26.97 Units (μ mole pyruvate/min/L)
same,GPT,[1]; 5.0 mg/kg p.o. + CCl4,573.10 ± 28.25 Units (μ mole pyruvate/min/L)
same,TG,[1]; 5.0 mg/kg p.o. + CCl4,49.31 ± 1.47 mg %
same,overall protection compared with silymarin,[1]; silymarin at 10-20 times the dosage of acteoside,better than that rendered by silymarin
same,GSH (glutathione),"[2]; no CCl4, hepatic",8.33 ± 0.33 μ mole GSH/g liver
same,LP (lipid peroxidation),"[2]; no CCl4, hepatic",30.52 ± 1.38 n mole MDA/g liver
same,ALP,"[2]; no CCl4, serum",31.87 ± 2.15 μ mole of p-nitrophenol formed/min/L
same,Albumin,"[2]; no CCl4, serum",4.66 ± 0.18 g %
same,Bilirubin,"[2]; no CCl4, serum",0.27 ± 0.02 mg %
same,GOT,"[2]; no CCl4, serum",94.71 ± 5.29 Units (μ mole pyruvate/min/L)
same,GPT,"[2]; no CCl4, serum",98.91 ± 5.30 Units (μ mole pyruvate/min/L)
same,TG,"[2]; no CCl4, serum",31.10 ± 2.39 mg %
same,effect on BP,[3],"O: There is no effect on BP and Respiration in the doses of 30 μg, 100 μg, 300 μg and 1 mg I.V. in rat as there is no change in base line."
same,effect on Respiration,[3],"O: There is no effect on BP and Respiration in the doses of 30 μg, 100 μg, 300 μg and 1 mg I.V. in rat as there is no change in base line."
same,effect on 5-HT induced contraction,isolated rat colon,"O: There is no change in the base line against the Histamine, 5-HT and Acetylcholine induced contraction on the isolated rat colon."
same,effect on Acetylcholine induced contraction,isolated rat colon,"O: There is no change in the base line against the Histamine, 5-HT and Acetylcholine induced contraction on the isolated rat colon."
same,effect on Histamine induced contraction,isolated rat colon,"O: There is no change in the base line against the Histamine, 5-HT and Acetylcholine induced contraction on the isolated rat colon."

# Reference: US6989162B2, “Hepatoprotective agent of plant origin and a process thereof” (Council of Scientific & Industrial Research, priority 2003, dated 2006)
